Values joined by “and” are separate entries in the source; they are usually repeats but may differ in a detail not shown here. Equal values may be shown once.
Conditions: Liquid, Vibrating tube method

CCCCCCC(=O)OCC(COC(=O)CCCCCC)(COC(=O)CCCCCC)COC(=O)CCCCCC [pentaerythritol tetraheptanoate]
Conditions | mass density
343.15 K, 32525 kPa | 962.8 kg/m3
343.15 K, 32544 kPa | 962.9 kg/m3
343.15 K, 32576 kPa | 962.8 kg/m3
343.15 K, 32608 kPa | 962.8 kg/m3
343.15 K, 32640 kPa | 962.9 kg/m3
343.15 K, 32679 kPa | 962.8 kg/m3
343.15 K, 32711 kPa | 963 kg/m3
343.15 K, 32736 kPa | 963 kg/m3
343.15 K, 32750 kPa | 963.1 kg/m3
343.15 K, 32774 kPa | 963.1 kg/m3
343.15 K, 32782 kPa | 963 kg/m3
343.15 K, 32814 kPa | 963.1 kg/m3
343.15 K, 32815 kPa | 963 kg/m3
343.15 K, 32853 kPa | 963.1 kg/m3
343.15 K, 32854 kPa | 962.9 kg/m3
343.15 K, 32887 kPa | 962.9 kg/m3
343.15 K, 32900 kPa | 963.1 kg/m3
343.15 K, 32920 kPa | 963.1 kg/m3
343.15 K, 32940 kPa | 963 kg/m3
343.15 K, 32953 kPa | 963.1 kg/m3
343.15 K, 32980 kPa | 963 kg/m3
343.15 K, 32993 kPa | 963.1 kg/m3
343.15 K, 33027 kPa | 963.1 kg/m3
343.15 K, 33028 kPa | 963.2 kg/m3
343.15 K, 33060 kPa | 963.1 kg/m3
343.15 K, 33068 kPa | 963.1 kg/m3
343.15 K, 33100 kPa | 963.1 kg/m3
343.15 K, 33109 kPa | 963.1 kg/m3
343.15 K, 33134 kPa | 963.3 kg/m3
343.15 K, 33174 kPa | 963.3 kg/m3
343.15 K, 33208 kPa | 963.4 kg/m3
343.15 K, 33242 kPa | 963.2 kg/m3
343.15 K, 33276 kPa | 963.3 kg/m3
343.15 K, 33317 kPa | 963.3 kg/m3
343.15 K, 33351 kPa | 963.3 kg/m3
343.15 K, 33385 kPa | 963.4 kg/m3
343.15 K, 33425 kPa | 963.3 kg/m3
343.15 K, 33459 kPa | 963.4 kg/m3
343.15 K, 33500 kPa | 963.3 kg/m3
343.15 K, 33535 kPa | 963.4 kg/m3
343.15 K, 33569 kPa | 963.4 kg/m3
343.15 K, 33604 kPa | 963.4 kg/m3
343.15 K, 33645 kPa | 963.5 kg/m3
343.15 K, 33679 kPa | 963.4 kg/m3
343.15 K, 33714 kPa | 963.4 kg/m3
343.15 K, 33721 kPa | 963.6 kg/m3
343.15 K, 33756 kPa | 963.6 kg/m3
343.15 K, 33772 kPa | 963.8 kg/m3
343.15 K, 33791 kPa | 963.6 kg/m3
343.15 K, 33816 kPa | 963.7 kg/m3
343.15 K, 33833 kPa | 963.5 kg/m3
343.15 K, 33862 kPa | 963.6 kg/m3
343.15 K, 33869 kPa | 963.6 kg/m3
343.15 K, 33906 kPa | 963.5 kg/m3
343.15 K, 33942 kPa | 963.6 kg/m3
343.15 K, 33949 kPa | 963.7 kg/m3
343.15 K, 33986 kPa | 963.7 kg/m3
343.15 K, 34002 kPa | 963.7 kg/m3
343.15 K, 34024 kPa | 963.7 kg/m3
343.15 K, 34048 kPa | 963.7 kg/m3
343.15 K, 34062 kPa | 963.7 kg/m3
343.15 K, 34095 kPa | 963.8 kg/m3
343.15 K, 34108 kPa | 963.8 kg/m3
343.15 K, 34139 kPa | 963.8 kg/m3
343.15 K, 34152 kPa | 963.8 kg/m3
343.15 K, 34166 kPa | 963.8 kg/m3
343.15 K, 34187 kPa | 963.8 kg/m3
343.15 K, 34202 kPa | 963.9 kg/m3
343.15 K, 34208 kPa | 964 kg/m3
343.15 K, 34229 kPa | 963.8 kg/m3
343.15 K, 34254 kPa | 963.7 kg/m3
343.15 K, 34259 kPa | 963.9 kg/m3
343.15 K, 34276 kPa | 963.7 kg/m3
343.15 K, 34290 kPa | 964 kg/m3
343.15 K, 34314 kPa | 964 kg/m3
343.15 K, 34315 kPa | 963.9 kg/m3
343.15 K, 34342 kPa | 964 kg/m3
343.15 K, 34365 kPa | 963.9 kg/m3 and 964.1 kg/m3
343.15 K, 34390 kPa | 964 kg/m3
343.15 K, 34409 kPa | 963.8 kg/m3
343.15 K, 34414 kPa | 964.1 kg/m3
343.15 K, 34444 kPa | 964 kg/m3
343.15 K, 34469 kPa | 963.9 kg/m3
343.15 K, 34483 kPa | 964 kg/m3
343.15 K, 34500 kPa | 964 kg/m3
343.15 K, 34527 kPa | 964.1 kg/m3
343.15 K, 34534 kPa | 964.1 kg/m3
343.15 K, 34556 kPa | 964 kg/m3
343.15 K, 34566 kPa | 964.1 kg/m3
343.15 K, 34584 kPa | 964.1 kg/m3
343.15 K, 34616 kPa | 964.2 kg/m3
343.15 K, 34624 kPa | 964.2 kg/m3
343.15 K, 34625 kPa | 964.2 kg/m3
343.15 K, 34651 kPa | 964.1 kg/m3
343.15 K, 34654 kPa | 964.2 kg/m3
343.15 K, 34656 kPa | 964.2 kg/m3
343.15 K, 34659 kPa | 964.1 kg/m3
343.16 K, 100.2 kPa | 940.6 kg/m3
343.16 K, 100.5 kPa | 940.7 kg/m3 and 940.6 kg/m3
343.16 K, 100.7 kPa | 940.6 kg/m3 and 940.7 kg/m3
343.16 K, 101 kPa | 940.7 kg/m3
343.16 K, 101.7 kPa | 940.6 kg/m3
343.16 K, 103.8 kPa | 940.6 kg/m3
343.16 K, 104.7 kPa | 940.6 kg/m3
343.16 K, 160.8 kPa | 940.8 kg/m3
343.16 K, 221.5 kPa | 940.6 kg/m3
343.16 K, 300.9 kPa | 940.7 kg/m3
343.16 K, 1395.6 kPa | 941.7 kg/m3
343.16 K, 1419.9 kPa | 941.7 kg/m3
343.16 K, 4555 kPa | 944.1 kg/m3
343.16 K, 5039.3 kPa | 944.4 kg/m3
343.16 K, 13687 kPa | 950.5 kg/m3
